Test results as given in patent publication US20100021541A1, “Microparticulate form of a Tetrahydropyridine derivative” (SANOFI-AVENTIS, priority 1996, published 2010).

How the values were obtained:
[1] = Clinical trials on healthy volunteers evaluating the effect of food on oral absorption; format: in vivo; settings: for required dose relative to the product of Example 5 to obtain the same absorption: absorption = area under the curve of plasma SR 57746 concentrations; for absorption with a meal versus on an empty stomach: oral, area under the curve of plasma SR 57746 concentrations
Text: The results obtained in vitro were confirmed in vivo by comparing the observations made in two clinical trials on healthy volunteers, the first trial evaluating the effect of food on the oral absorption of the SR 57746 A obtained according to EP 0 101 381, and the second trial evaluating the effect of food on the oral absorption of the SR 57746 A of Example 5 below. In both the trials, the criterion for evaluation of the absorption was the area under the curve of the plasma SR 57746 concentrations as a function of time.

CACO-2 monolayer = CACO-2 monolayer model, in vitro absorption (dissolution and permeability); format: in vitro ADME; settings: Hanks' solution supplemented with 10% of fetal calf serum and taurocholic acid
Experimental: A study concerning the determination of the in vitro absorption of the microparticles according to the present invention was carried out using the CACO-2 monolayer model.

[2] = Phase I clinical trials on healthy volunteers, oral administration; format: in vivo; settings: administered orally
Text: EP 0 101 381 describes SR 57746 in the form of the hydrochloride, hereafter called SR 57746 A, and this salt was used in preclinical and clinical trials on healthy volunteers (Phase I). According to said document, SR 57746 is isolated by crystallization from ethanol, especially absolute ethanol.

[3] = tested on: amyotrophic lateral sclerosis; settings: 2 mg/day; cited from earlier work
[4] = Preclinical trials: animal pharmacology, toxicology and pharmacokinetic studies; set-up: species or system animals; settings: in vivo

Cl.FC(F)(F)c1cccc(C2=CCN(CCc3ccc4ccccc4c3)CC2)c1 [1-[2-(2-naphthyl)ethyl]-4-(3-trifluoromethylphenyl)-1,2,3,6-tetrahydropyridine hydrochloride]
required dose relative to the product of Example 5 to obtain the same absorption ([1]; administered on an empty stomach): about nine times greater
required dose relative to the product of Example 5 to obtain the same absorption ([1]; administered with a meal): three to four times greater
absorption with a meal versus on an empty stomach ([1]; hydrochloride): two to three times greater

Cl.FC(F)(F)c1cccc(C2=CCN(CCc3ccc4ccccc4c3)CC2)c1 [Example 5]
dissolution and permeability (CACO-2 monolayer): rendered uniform
absorption with a meal versus on an empty stomach [1]: the absorption is the same

Cl.FC(F)(F)c1cccc(C2=CCN(CCc3ccc4ccccc4c3)CC2)c1 [SR 57746 A, 1-[2-(2-naphthyl)ethyl]-4-(3-trifluoromethylphenyl)-1,2,3,6-tetrahydropyridine hydrochloride]
variability in the plasma concentrations and the pharmacodynamic effects [2]: high variability
clinical outcome in amyotrophic lateral sclerosis [3]: proved promising

FC(F)(F)c1cccc(C2=CCN(CCc3ccc4ccccc4c3)CC2)c1 [SR 57746, 1-[2-(2-Naphthyl)ethyl]-4-(3-trifluoromethylphenyl)-1,2,3,6-tetrahydropyridine]
activity and behavior in animal pharmacology and toxicology tests [4]: constant activity and behavior
pharmacokinetic studies on animals [4]: constant and reproducible results
